Read-outs that look alike come from different tables or passages of the source.
Legend:
[1] = biological target: Recombinant human JAK1 (catalytic domain) (Homo sapiens (Human), UniProt P23458); experiment: JAK1 inhibition assay; format: biochemical; details: average ± standard error of the mean; 7 μM ATP
Procedure: After 60 min at room temperature, reactions were stopped by adding 20 μL/well of detection mixture (1× detection buffer (Perkin Elmer, catalog number CR97-100C), 0.5 nM Europium-anti-phosphotyrosine (PT66) (Perkin Elmer, catalog number AD0068), 10 mM EDTA). […] Kinase activity was calculated by subtracting relative fluorescence units (RFU) obtained in the presence of a positive control inhibitor (10 μM staurosporine) from RFU obtained in the presence of vehicle.
Dose dilution series were prepared for the compounds enabling the testing of dose-response effects in the JAK1 assay and the calculation of the IC50 for the compound. […] The data are expressed as the average IC50 from the assays±standard error of the mean.

[2] = Caco2 permeability (bi-directional); format: in vitro ADME; details: human, pH 7.4
Procedure: Bi-directional Caco-2 assays were performed as described below. Caco-2 cells were obtained from European Collection of Cell Cultures (ECACC, cat 86010202) and used after a 21 day cell culture in 24-well Transwell plates (Fisher TKT-545-020B).
2×10^5 cells/well were seeded in plating medium consisting of DMEM+GlutaMAXI+1% NEAA+10% FBS (FetalClone II)+1% Pen/Strep. The medium was changed every 2-3 days.
Test and reference compounds (propranolol and rhodamine123 or vinblastine, all purchased from Sigma) were prepared in Hanks' Balanced Salt Solution containing 25 mM HEPES (pH7.4) and added to either the apical (125 μL) or basolateral (600 μL) chambers of the Transwell plate assembly at a concentration of 10 μM with a final DMSO concentration of 0.25%.
50μM Lucifer Yellow (Sigma) was added to the donor buffer in all wells to assess integrity of the cell layers by monitoring Lucifer Yellow permeation. […]
Lucifer yellow was measured with a Spectramax Gemini XS (Ex 426 nm and Em 538 nm) in a clean 96 well plate containing 150 μL of liquid from basolateral and apical side.
Concentrations of compound in the samples were measured by high performance liquid-chromatography/mass spectroscopy (LC-MS/MS).
The Efflux ratios, as an indication of active efflux from the apical cell surface, were calculated using the ratio of PappB>A/Papp A>B.

[3] = system: JAK2 dependent pathway (GM-CSF induced IL-8) in human whole blood; experiment: Whole blood assay, GM-CSF stimulation, IL-8 ELISA; format: cell-based; details: 6 blood donors, ± SEM, read-out: pIC50 for inhibition of GM-CSF induced increase of IL-8 (converted)
Procedure: For GM-CSF stimulation, increase in interleukin-8 (IL-8) levels in plasma was measured using an IL-8 ELISA assay. Granulocyte macrophage-colony stimulating factor (GM-CSF)—induced interleukin 8 (IL-8) expression is a JAK2-mediated event.
The increase in IL-8 levels in plasma was measured using an IL-8 ELISA assay.
10 μg GM-CSF was dissolved in 100 μL H2O to obtain a 100 μg/mL stock solution. The stock solution was stored at −20° C.
A 3-fold dilution series of the test compound was prepared in DMSO (highest concentration: 10 mM).
Human blood was collected in heparinized tubes. The blood was divided in aliquots of 245 μL. […] The GM-CSF stock solution was diluted 100-fold in RPMI medium to obtain a 1 μg/mL work solution. […] The samples were incubated at 37° C. for 2 h.
The samples were centrifuged for 15 min at 1,000 g, 4° C. 100 μL of the plasma was harvested and stored at −80° C. until further use.
The Human IL-8 Chemiluminescent Immunoassay kit from R&D Systems (Cat. n°: Q8000B) was used to determine IL-8 levels.
Wash buffer was prepared by diluting 10× wash buffer in H2O. Working glo reagent was prepared by adding 1 part Glo Reagent 1 to 2 parts Glo Reagent B 15 min to 4 h before use.
100 μL assay diluent RD1-86 was added to each well. After that, 50 μL of sample (plasma) was added. […] Luminescence was measured (0.5 s/well read time).

[4] = biological target: Recombinant human TYK2 catalytic domain (Homo sapiens (Human), UniProt P29597); experiment: TYK2 inhibition assay; format: biochemical; details: 0.1 μM ATP
Sequence of Recombinant human TYK2 catalytic domain (P29597 871-1187): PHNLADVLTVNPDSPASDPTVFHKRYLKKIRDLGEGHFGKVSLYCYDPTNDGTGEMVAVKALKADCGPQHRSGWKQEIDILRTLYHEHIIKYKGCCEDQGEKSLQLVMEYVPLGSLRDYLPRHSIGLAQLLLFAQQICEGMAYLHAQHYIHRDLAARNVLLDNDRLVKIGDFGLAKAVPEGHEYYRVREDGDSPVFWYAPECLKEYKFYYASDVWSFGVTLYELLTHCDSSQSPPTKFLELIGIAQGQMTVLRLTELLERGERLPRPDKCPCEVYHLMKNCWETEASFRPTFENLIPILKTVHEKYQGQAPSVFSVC
Procedure: Recombinant human TYK2 catalytic domain (amino acids 871-1187; catalog number 08-147) was purchased from Carna biosciences. 5 ng of TYK2 was incubated with 12.5 μg polyGT substrate (Sigma catalog number P0275) in kinase reaction buffer (25 mM Hepes pH 7.5, 100 mM NaCl, 0.2 mM Na3VO4, 0.1% NP-40, 0.1 μM non-radioactive ATP, 0.125 μCi ^33P-gamma-ATP (GE Healthcare, catalog number AH9968) final concentrations) with or without 5 μL containing test compound or vehicle (DMSO, 1% final concentration), in a total volume of 25 μL, in a polypropylene 96-well plate (Greiner, V-bottom). After 90 min at 30° C., reactions were stopped by adding of 25 μL/well of 150 mM phosphoric acid. […] 40 μL/well of Microscint-20 was added, the top of the plates was sealed and readout was performed using the Topcount (Perkin Elmer). Kinase activity was calculated by subtracting counts per minute (cpm) obtained in the presence of a positive control inhibitor (10 μM staurosporine) from cpm obtained in the presence of vehicle. The ability of a test compound to inhibit this activity was determined as: Percentage inhibition=((cpm determined for sample with test compound present−cpm determined for sample with positive control inhibitor) divided by (cpm determined in the presence of vehicle−cpm determined for sample with positive control inhibitor))*100. […]

Sequence of Recombinant human JAK1 (catalytic domain) (P23458 866-1154): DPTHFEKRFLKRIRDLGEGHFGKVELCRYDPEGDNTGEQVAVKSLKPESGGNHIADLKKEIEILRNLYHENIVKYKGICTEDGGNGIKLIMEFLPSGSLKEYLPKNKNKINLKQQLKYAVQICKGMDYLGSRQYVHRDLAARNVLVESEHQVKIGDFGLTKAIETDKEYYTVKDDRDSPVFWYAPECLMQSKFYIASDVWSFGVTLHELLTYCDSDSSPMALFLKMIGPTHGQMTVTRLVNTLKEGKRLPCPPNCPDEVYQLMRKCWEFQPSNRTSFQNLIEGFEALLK

CC1(C)CN(C(=O)c2ccc(-c3cccc4nc(NC(=O)C5CC5)nn34)cc2)C1 [Compound 1, Cyclopropanecarboxylic acid{5-[4-(3,3-dimethyl-azetidine-1-carbonyl)-phenyl]-[1,2,4]triazolo[1,5-a]pyridin-2-yl}-amide]
IC50 [1]: 0.0066 ± 0.0007 µM | Papp at 1 h, 10 μM ([2]; Caco-2, 10 μM, 1 hour, pH7.4): 7.8 ± 0.8 ×10⁻⁶ cm/s | efflux ratio at 1 h, 10 μM ([2]; Caco-2, Papp B>A / Papp A>B): 6.1 ± 0.6 | IC50 ([3]; additional data analysis protocol (R2 > 0.8, hill slope < 3)): 10.7 µM | IC50 ([3]; human whole blood): 13.5 µM | IC50 [4]: 0.219 ± 0.037 µM

Reference: patent US8796457B2, “Compound useful for the treatment of degenerative and inflammatory diseases” (Galapagos NV, priority 2009, dated 2014)
